Each structure is given as a SMILES string.

78 compounds from article PMC12040169 (PLOS Biology, 2025) can be followed below.

The nature of one data set: in vitro. The following applies: human, hela cells.
Take `CC(C)CN(/C=N/c1nc(OC(=O)N(c2ccccc2)c2ccccc2)nc2c1ncn2C1CC(O)C(CO)O1)CC(C)C` (stereo not drawn) [CBK201170]: the viability at 28.5 h, 10 µM is 93%.
Still for that read-out and setting: the value for `Nc1ncnc2c1ccn2[C@@H]1O[C@H](CO)[C@H](O)C1O` (stereo partly drawn) [CBK201176] was 0%.

Still in this data set, the particulars now being: human, hela cells, % viability.
In the case of `O=C(c1cnccc1C(F)(F)F)N1CCc2ccccc21` [CBK200401], the viability at 28.5 h, 10 µM worked out at 112%.
The same measure, in the same setting: the value for `O=C(c1ccc2ncccc2c1)N1CCc2ccccc21` [CBK200403] was 81.8%.
The same measure, in the same setting: the value for `O=C(c1ccc2ccccc2n1)N1CCc2ccccc21` [CBK200404] was 94%.
On the same count and under the same terms, the value for `Cn1cc(C(=O)N2CCc3ccccc32)c2ccccc21` [CBK200407] was 80.6%; that for `O=C(c1csnn1)N1CCc2ccccc21` [CBK200408] was 86%; that for `O=C(c1ccno1)N1CCc2ccccc21` [CBK200409] was 104%.
On to `CCOc1ccsc1C(=O)N1CCc2ccccc21` [CBK200410], for which the viability at 28.5 h, 10 µM worked out at 100%.
Still for that read-out and setting: the value for `O=C(CCN1CCCCC1)N1CCc2ccccc21` [CBK200413] was 91.1%; that for `COC(=O)N1CCN(c2ccccc2)CC1` [CBK200414] was 85.5%; that for `C[C@@H]1CN(C(=O)OCCc2cccs2)C[C@H](C)O1` [CBK200416] was 95.5%.
The same measure, in the same setting: the value for `Cc1ncsc1CCOC(=O)N1C[C@@H](C)O[C@@H](C)C1` [CBK200418] was 96.3%; that for `CN1CCN(CCOC(=O)N2CCN(C(c3ccccc3)c3ccccc3)CC2)CC1` [CBK200419] was 89%.
Same read-out and setting: the value for `Nc1ncc(-c2cccc(C(=O)O)c2)nc1-c1ccc(O)cc1` [CBK200420] was 107%; that for `CN1CCN(C(=O)c2ccc(-c3cnc(N)c(-c4ccc(O)cc4)n3)cc2F)CC1` [CBK200421] was 90.6%; that for `Nc1ncc(-c2ccc(C(=O)N3CCOCC3)cc2)nc1-c1ccsc1` [CBK200422] was 110%.
For the compound `O=C(O)c1cccc(NS(=O)(=O)c2cc3ccccc3o2)c1` [CBK200423], the viability at 28.5 h, 10 µM was determined as 97.4%.
In the case of `CN1CCC(N(C)C(=O)c2cc3oc(-c4ccccc4)nc3c(=O)n2C)C1` (stereo not drawn) [CBK200424T], the viability at 28.5 h, 10 µM is 93.9%.
The same measure, in the same setting: the value for `CN1CCN(c2ccc(NC(=O)c3cc4oc(-c5ccccc5)nc4c(=O)n3C)cc2)CC1` [CBK200425] was 94.9%; that for `CNc1ncnc2c1ncn2[C@@H]1O[C@H](CO)[C@@H](O)[C@H]1O` [CBK200610] was 101%; that for `Cn1c(=O)c2c(ncn2CC(O)CO)n(C)c1=O` (stereo not drawn) [CBK200637] was 98.5%.
With `CN(C)CC/C=C1/c2ccccc2COc2ccc(CC(=O)O)cc21` [CBK200992], the viability at 28.5 h, 10 µM amounted to 92.4%.
The same measure, in the same setting: the value for `Nc1nccc2c1ncn2[C@H]1C[C@@H](O)[C@@H](CO)O1` [CBK201157] was 97.1%.
Still for that read-out and setting: the value for `O=c1cnn([C@H]2C[C@@H](O)[C@@H](CO)O2)c(=O)[nH]1` [CBK201162] was 93.4%.
As for `O=[N+]([O-])c1ccc2c(ccn2C2CC(O)C(CO)O2)c1` (stereo not drawn) [CBK201163], the viability at 28.5 h, 10 µM turned out to be 95%.
Still for that read-out and setting: the value for `COC1C(O)C(CO)OC1n1ccc(=O)[nH]c1=O` (stereo not drawn) [CBK201166] was 93.6%; that for `OC[C@H]1O[C@@H](n2cnc3c(Cl)ncnc32)C[C@H]1O` [CBK201167] was 99.6%; that for `COC1C(O)C(CO)OC1n1cc(F)c(=S)[nH]c1=O` (stereo not drawn) [CBK201168] was 96%.
On the same count and under the same terms, the value for `Nc1nc2c(ncn2[C@@H]2O[C@H](CO)[C@H](O)C2O)c(=O)[nH]1` (stereo partly drawn) [CBK201173] was 96%; that for `CN(C)/C=N/c1ncc2ncn(C3CC(O)C(CO)O3)c2n1` (stereo not drawn) [CBK201175] was 90.8%; that for `COc1nc(N)nc2c1ccn2C1CC(O)C(CO)O1` (stereo not drawn) [CBK201177] was 98.6%.
On the same count and under the same terms, the value for `CC#Cc1cn([C@H]2C[C@@H](O)[C@@H](CO)O2)c(=O)[nH]c1=O` [CBK201182] was 104%; that for `Cc1cc(C)c(Oc2nc(=O)n([C@H]3C[C@@H](O)[C@@H](CO)O3)cc2F)c(C)c1` [CBK201184] was 96.4%.
In the case of `Cc1nn([C@H]2C[C@@H](O)[C@@H](CO)O2)c(=O)[nH]c1=O` [CBK201185], the viability at 28.5 h, 10 µM is 97.3%.
Consider `O=c1[nH]cnc2c1ncn2[C@@H]1O[C@H](CO)[C@H](O)C1O` (stereo partly drawn) [CBK201186], for which the viability at 28.5 h, 10 µM is 98.3%.
On the same count and under the same terms, the value for `CCNc1nc2c(ncn2C2CC(O)C(CO)O2)c(=O)[nH]1` (stereo not drawn) [CBK201189] was 99.6%; that for `Nc1nc2c([C@H]3C[C@@H](O)[C@@H](CO)O3)c[nH]c2c(=O)[nH]1` [CBK201194] was 102%.
Same read-out and setting: the value for `Nc1cc2c(ncn2[C@@H]2C[C@@H](O)[C@@H](CO)O2)c(=O)[nH]1` [CBK201196] was 88.1%.
The same measure, in the same setting: the value for `Cc1cn([C@H]2C[C@@H](O)[C@@H](CI)O2)c(=O)[nH]c1=O` [CBK201197] was 96.9%; that for `CC(C)CNc1nc2c(ncn2[C@H]2C[C@@H](O)[C@@H](CO)O2)c(=O)[nH]1` [CBK201198] was 94.8%.
Consider `Cc1cn(C2CC(O)C(CO)O2)c(=O)nc1SCCC#N` (stereo not drawn) [CBK201201], for which the viability at 28.5 h, 10 µM stood at 97.5%.
Still for that read-out and setting: the value for `CC(C)C(=O)Nc1nc2c([nH]c(=O)n2[C@H]2C[C@@H](O)[C@@H](CO)O2)c(=O)[nH]1` [CBK201202] was 98.4%; that for `N#Cc1cn([C@@H]2O[C@H](CO)[C@H](O)C2O)c2ncnc(N)c12` (stereo partly drawn) [CBK201204] was 18%; that for `C#Cc1cn([C@H]2C[C@@H](O)[C@@H](CO)O2)c(=O)[nH]c1=O` [CBK201207] was 87.8%.
On the same count and under the same terms, the value for `O=c1ccn([C@@H]2O[C@H](CO)[C@H](O)C2O)c(=S)[nH]1` (stereo partly drawn) [CBK201210] was 91.8%; that for `Nc1nc2c(ncn2[C@H]2C[C@@H](O)[C@@H](CO)O2)c(=S)[nH]1` [CBK201213] was 59.3%; that for `Cn1c(N)nc2c(ncn2[C@H]2C[C@@H](O)[C@@H](CO)O2)c1=O` [CBK201215] was 105%.
The same measure, in the same setting: the value for `Nc1nc2nn([C@H]3C[C@@H](O)[C@@H](CO)O3)cc2c(=O)[nH]1` [CBK201218] was 90.3%.
For the compound `Nc1ncnc2c1nc(N)n2[C@H]1C[C@@H](O)[C@@H](CO)O1` [CBK201222], the viability at 28.5 h, 10 µM was 101%.
`Nc1nc2c(cnn2[C@H]2C[C@@H](O)[C@@H](CO)O2)c(=O)[nH]1` [CBK201223]: the viability at 28.5 h, 10 µM is 101%.
On the same count and under the same terms, the value for `Nc1ncnc2c1nnn2[C@@H]1O[C@H](CO)[C@H](O)C1O` (stereo partly drawn) [CBK201228] was 30%.
Still for that read-out and setting: the value for `O=[N+]([O-])c1ccn(C2CC(O)C(CO)O2)c1` (stereo not drawn) [CBK201229] was 83.7%.
The same measure, in the same setting: the value for `O=C(/C=C/c1cn(C2OC(CO)C(O)C2O)c(=O)[nH]c1=O)NCCCCCCNC(=O)C(F)(F)F` (stereo not drawn) [CBK201231] was 99.1%; that for `Cc1cn([C@H]2C[C@@H](O)[C@@H](CO)O2)c(=O)nc1-n1cncn1` [CBK201235] was 82.9%.
As to `O=c1[nH]c(=O)n([C@H]2C[C@@H](O)[C@@H](CO)O2)cc1CCO` [CBK201239], the viability at 28.5 h, 10 µM was 99.6%.
The same measure, in the same setting: the value for `Nc1ncnc2c1nc(Br)n2[C@H]1C[C@@H](O)[C@@H](CO)O1` [CBK201240] was 103%; that for `COC1C(O)C(CO)OC1n1cnc2c(N)nc(N)nc21` (stereo not drawn) [CBK201241] was 95.4%; that for `O=c1[nH]cnc2c([C@@H]3O[C@H](CO)[C@H](O)C3O)n[nH]c12` (stereo partly drawn) [CBK201242] was 98.1%.
On the same count and under the same terms, the value for `OC[C@H]1O[C@@H](n2cnc3cncnc32)C[C@H]1O` [CBK201243] was 113%; that for `COC(=O)/C=C/c1cn(C2CC(O)C(CO)O2)c(=O)[nH]c1=O` (stereo not drawn) [CBK201244] was 105%.
Still for that read-out and setting: the value for `O=c1[nH]cnc2c1cnn2[C@@H]1O[C@H](CO)[C@H](O)C1O` (stereo partly drawn) [CBK201245] was 95.8%.
Consider `Nc1ncc([C@H]2C[C@@H](O)[C@@H](CO)O2)c(=O)[nH]1` [CBK201246], for which the viability at 28.5 h, 10 µM was 79.8%.
Still for that read-out and setting: the value for `Nc1nc2c(nc(OCc3ccccc3)n2C2OC(CO)C(O)C2O)c(=O)[nH]1` (stereo not drawn) [CBK201247] was 80.6%; that for `O=C(Nc1ncnc2c1[nH]c(=O)n2C1CC(O)C(CO)O1)c1ccccc1` (stereo not drawn) [CBK201250] was 94.6%; that for `COC1C(O)C(CO)OC1n1cc(C)c(=O)[nH]c1=O` (stereo not drawn) [CBK201251] was 103%.
Same read-out and setting: the value for `Nc1ncnc2c1nc1n2[C@H]2C[C@@H](O)[C@@H](C1)O2` [CBK201254] was 102%.
Still for that read-out and setting: the value for `Nc1ncnc2c1ccn2[C@H]1C[C@@H](O)[C@@H](CO)O1` [CBK201258] was 95.5%; that for `Nc1ncnc2c1nc1n2[C@H]2C[C@@H](O)[C@H](O2)C1=O` [CBK201259] was 98.2%.
For `N#CCCSc1ccn(C2CC(O)C(CO)O2)c(=O)n1` (stereo not drawn) [CBK201261], the viability at 28.5 h, 10 µM was 97.9%.
As to `Nc1cccc(-c2cn([C@H]3C[C@@H](O)[C@@H](CO)O3)c(=O)[nH]c2=O)c1` [CBK201262], the viability at 28.5 h, 10 µM was determined as 94.4%.
With `OC[C@H]1OCC[C@H]1O` [CBK201263], the viability at 28.5 h, 10 µM was found to be 113%.
The same measure, in the same setting: the value for `OC[C@H]1O[C@@H](n2cnc3c(Cl)ncnc32)C(O)[C@H]1O` (stereo partly drawn) [CBK201266] was 99.1%; that for `Cc1cn([C@@H]2O[C@H](CO)[C@H](O)C2O)c(=O)nc1N` (stereo partly drawn) [CBK201268] was 105%; that for `Nc1nc2c([nH]c(=O)n2[C@H]2C[C@@H](O)[C@@H](CO)O2)c(=O)[nH]1` [CBK201269] was 94.7%.
On the same count and under the same terms, the value for `O=C(O)/C=C/c1cn([C@@H]2O[C@H](CO)[C@H](O)C2O)c(=O)[nH]c1=O` (stereo partly drawn) [CBK201270] was 96.7%; that for `Cn1cc([C@H]2C[C@@H](O)[C@@H](CO)O2)c(=O)n(C)c1=O` [CBK201272] was 97.3%; that for `OC[C@H]1O[C@@H](n2cnc3c(Cl)nccc32)C[C@H]1O` [CBK201273] was 88.5%.

By viability is commonly meant a read-out of living cells in per cent, often relative to untreated cells.
